Data: patent US10253039B2, “Inhibitors of bacterial DNA gyrase with efficacy against gram-negative bacteria” (priority 2014, dated 2019)
Values after ≈ are worked out from the molar mass of the structure shown.

Test system: E. coli BW25113
Assay: MIC, microdilution in 96-well plates
Assay type: cell-based
Settings: Escherichia coli, BW25113, B: E. coli BW25113; read-out: MIC
Summary of the method: (§1)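 MIC read by eye as the lowest concentration without turbidity, after 16-18 h shaking incubation at 37° C. Cells: 1:10000 inoculum from growing subculture in LB. Compound in 2-fold serial dilutions, triplicate wells, DMSO vehicle control; CLSI protocol.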

Structure (SMILES)	MIC
CC(C)Oc1c(Cl)cc(CN2CC[C@@H](NS(=O)(=O)c3cccc(OC(F)(F)F)c3)C2)cc1Cl [Compound 117]	> 8 mg/L
N#Cc1cccc(S(=O)(=O)N[C@@H]2CCN(Cc3ccc(OC(F)(F)F)cc3)C2)c1 [Compound 17]	> 8 mg/L

Same assay, conditions: Escherichia coli, BW25113, E. coli BW25113; read-out: MIC

Structure (SMILES)	MIC
Cn1ccc(-c2ccc(CN3CC[C@@H](NS(=O)(=O)c4cccc(C(F)(F)F)c4)C3)cc2)n1 [Compound 171]	> 8 mg/L
Cc1ccncc1S(=O)(=O)N[C@@H]1CCN(Cc2ccc(-c3ccccc3)cc2)C1 [Compound 137]	> 8 mg/L
O=S(=O)(N[C@@H]1CCN(Cc2ccc(-c3ccccc3)cc2)C1)c1cncc(F)c1 [Compound 147]	> 8 mg/L

Test system: Edwardsiella tarda
Assay: MIC, microdilution in 96-well plates
Assay type: cell-based
Settings: not given
Summary of the method: as §1

Structure (SMILES)	MIC
Cn1ccc(-c2ccc(CN3CC[C@@H](NS(=O)(=O)c4cccc(C(F)(F)F)c4)C3)cc2)n1 [Compound 171]	> 8 mg/L
Cc1ccncc1S(=O)(=O)N[C@@H]1CCN(Cc2ccc(-c3ccccc3)cc2)C1 [Compound 137]	> 8 mg/L
O=S(=O)(N[C@@H]1CCN(Cc2ccc(-c3ccccc3)cc2)C1)c1cncc(F)c1 [Compound 147]	> 8 mg/L

Same assay, conditions: D: Edwardsiella tarda

Structure (SMILES)	MIC
CC(C)Oc1c(Cl)cc(CN2CC[C@@H](NS(=O)(=O)c3cccc(OC(F)(F)F)c3)C2)cc1Cl [Compound 117]	> 8 mg/L
N#Cc1cccc(S(=O)(=O)N[C@@H]2CCN(Cc3ccc(OC(F)(F)F)cc3)C2)c1 [Compound 17]	> 8 mg/L

Test system: E. coli JW5503 (deltolC)
Assay: MIC, 20-strain panel
Assay type: cell-based
Settings: Escherichia coli, C: E. coli JW5503 (deltolC)
Summary of the method: as §1

Structure (SMILES)	MIC
CC(C)Oc1c(Cl)cc(CN2CC[C@@H](NS(=O)(=O)c3cccc(OC(F)(F)F)c3)C2)cc1Cl [Compound 117]	> 8 mg/L
N#Cc1cccc(S(=O)(=O)N[C@@H]2CCN(Cc3ccc(OC(F)(F)F)cc3)C2)c1 [Compound 17]	8 mg/L (≈ 18.8 µM)

Same assay, conditions: Escherichia coli, E. coli JW5503 (deltolC)

Structure (SMILES)	MIC
Cn1ccc(-c2ccc(CN3CC[C@@H](NS(=O)(=O)c4cccc(C(F)(F)F)c4)C3)cc2)n1 [Compound 171]	1 mg/L (≈ 2.15 µM)
Cc1ccncc1S(=O)(=O)N[C@@H]1CCN(Cc2ccc(-c3ccccc3)cc2)C1 [Compound 137]	2 mg/L (≈ 4.91 µM)
O=S(=O)(N[C@@H]1CCN(Cc2ccc(-c3ccccc3)cc2)C1)c1cncc(F)c1 [Compound 147]	8 mg/L (≈ 19.4 µM)

Test system: E. coli MG1655
Assay: MIC, 20-strain panel
Assay type: cell-based
Settings: Escherichia coli, MG1655, A: E. coli MG1655; read-out: MIC
Summary of the method: as §1

Structure (SMILES)	MIC
CC(C)Oc1c(Cl)cc(CN2CC[C@@H](NS(=O)(=O)c3cccc(OC(F)(F)F)c3)C2)cc1Cl [Compound 117]	> 8 mg/L
N#Cc1cccc(S(=O)(=O)N[C@@H]2CCN(Cc3ccc(OC(F)(F)F)cc3)C2)c1 [Compound 17]	> 8 mg/L

Same assay, conditions: Escherichia coli, MG1655, E. coli MG1655; read-out: MIC

Structure (SMILES)	MIC
Cn1ccc(-c2ccc(CN3CC[C@@H](NS(=O)(=O)c4cccc(C(F)(F)F)c4)C3)cc2)n1 [Compound 171]	> 8 mg/L
Cc1ccncc1S(=O)(=O)N[C@@H]1CCN(Cc2ccc(-c3ccccc3)cc2)C1 [Compound 137]	> 8 mg/L
O=S(=O)(N[C@@H]1CCN(Cc2ccc(-c3ccccc3)cc2)C1)c1cncc(F)c1 [Compound 147]	> 8 mg/L

Test system: Klebsiella pneumoniae subsp. pneumoniae
Assay: MIC, 20-strain panel
Assay type: cell-based
Settings: E: Klebsiella pneumoniae subsp. pneumoniae
Summary of the method: as §1

Structure (SMILES)	MIC
CC(C)Oc1c(Cl)cc(CN2CC[C@@H](NS(=O)(=O)c3cccc(OC(F)(F)F)c3)C2)cc1Cl [Compound 117]	> 8 mg/L
N#Cc1cccc(S(=O)(=O)N[C@@H]2CCN(Cc3ccc(OC(F)(F)F)cc3)C2)c1 [Compound 17]	> 8 mg/L

Same assay, conditions: Klebsiella pneumoniae subsp. pneumoniae

Structure (SMILES)	MIC
Cn1ccc(-c2ccc(CN3CC[C@@H](NS(=O)(=O)c4cccc(C(F)(F)F)c4)C3)cc2)n1 [Compound 171]	> 8 mg/L
Cc1ccncc1S(=O)(=O)N[C@@H]1CCN(Cc2ccc(-c3ccccc3)cc2)C1 [Compound 137]	> 8 mg/L
O=S(=O)(N[C@@H]1CCN(Cc2ccc(-c3ccccc3)cc2)C1)c1cncc(F)c1 [Compound 147]	> 8 mg/L

Test system: Salmonella enterica subsp. enterica typhimurium
Assay: MIC, 20-strain panel
Assay type: cell-based
Settings: F: Salmonella enterica subsp. enterica Typhimurium
Summary of the method: as §1

Structure (SMILES)	MIC
CC(C)Oc1c(Cl)cc(CN2CC[C@@H](NS(=O)(=O)c3cccc(OC(F)(F)F)c3)C2)cc1Cl [Compound 117]	> 8 mg/L
N#Cc1cccc(S(=O)(=O)N[C@@H]2CCN(Cc3ccc(OC(F)(F)F)cc3)C2)c1 [Compound 17]	> 8 mg/L

Same assay, conditions: Salmonella enterica subsp. enterica Typhimurium

Structure (SMILES)	MIC
Cn1ccc(-c2ccc(CN3CC[C@@H](NS(=O)(=O)c4cccc(C(F)(F)F)c4)C3)cc2)n1 [Compound 171]	> 8 mg/L
Cc1ccncc1S(=O)(=O)N[C@@H]1CCN(Cc2ccc(-c3ccccc3)cc2)C1 [Compound 137]	> 8 mg/L
O=S(=O)(N[C@@H]1CCN(Cc2ccc(-c3ccccc3)cc2)C1)c1cncc(F)c1 [Compound 147]	> 8 mg/L

Test system: Shigella flexneri
Assay: MIC, 20-strain panel
Assay type: cell-based
Settings: not given
Summary of the method: as §1

Structure (SMILES)	MIC
Cn1ccc(-c2ccc(CN3CC[C@@H](NS(=O)(=O)c4cccc(C(F)(F)F)c4)C3)cc2)n1 [Compound 171]	> 8 mg/L
Cc1ccncc1S(=O)(=O)N[C@@H]1CCN(Cc2ccc(-c3ccccc3)cc2)C1 [Compound 137]	> 8 mg/L
O=S(=O)(N[C@@H]1CCN(Cc2ccc(-c3ccccc3)cc2)C1)c1cncc(F)c1 [Compound 147]	> 8 mg/L

Same assay, conditions: G: Shigella flexneri

Structure (SMILES)	MIC
CC(C)Oc1c(Cl)cc(CN2CC[C@@H](NS(=O)(=O)c3cccc(OC(F)(F)F)c3)C2)cc1Cl [Compound 117]	> 8 mg/L
N#Cc1cccc(S(=O)(=O)N[C@@H]2CCN(Cc3ccc(OC(F)(F)F)cc3)C2)c1 [Compound 17]	> 8 mg/L

Test system: Staphylococcus aureus subsp. aureus
Assay: MIC, 20-strain panel
Assay type: cell-based
Settings: H: Staphylococcus aureus subsp. aureus, read-out: MIC
Summary of the method: as §1

Structure (SMILES)	MIC
CC(C)Oc1c(Cl)cc(CN2CC[C@@H](NS(=O)(=O)c3cccc(OC(F)(F)F)c3)C2)cc1Cl [Compound 117]	> 8 mg/L
N#Cc1cccc(S(=O)(=O)N[C@@H]2CCN(Cc3ccc(OC(F)(F)F)cc3)C2)c1 [Compound 17]	> 8 mg/L

Same assay, conditions: Staphylococcus aureus subsp. aureus, read-out: MIC

Structure (SMILES)	MIC
Cn1ccc(-c2ccc(CN3CC[C@@H](NS(=O)(=O)c4cccc(C(F)(F)F)c4)C3)cc2)n1 [Compound 171]	> 8 mg/L
Cc1ccncc1S(=O)(=O)N[C@@H]1CCN(Cc2ccc(-c3ccccc3)cc2)C1 [Compound 137]	> 8 mg/L
O=S(=O)(N[C@@H]1CCN(Cc2ccc(-c3ccccc3)cc2)C1)c1cncc(F)c1 [Compound 147]	> 8 mg/L

Test system: Staphylococcus epidermidis
Assay: MIC, 20-strain panel
Assay type: cell-based
Settings: not given
Summary of the method: as §1

Structure (SMILES)	MIC
Cn1ccc(-c2ccc(CN3CC[C@@H](NS(=O)(=O)c4cccc(C(F)(F)F)c4)C3)cc2)n1 [Compound 171]	> 8 mg/L
Cc1ccncc1S(=O)(=O)N[C@@H]1CCN(Cc2ccc(-c3ccccc3)cc2)C1 [Compound 137]	> 8 mg/L
O=S(=O)(N[C@@H]1CCN(Cc2ccc(-c3ccccc3)cc2)C1)c1cncc(F)c1 [Compound 147]	> 8 mg/L
CC(C)Oc1c(Cl)cc(CN2CC[C@@H](NS(=O)(=O)c3cccc(OC(F)(F)F)c3)C2)cc1Cl [Compound 117]	> 8 mg/L
N#Cc1cccc(S(=O)(=O)N[C@@H]2CCN(Cc3ccc(OC(F)(F)F)cc3)C2)c1 [Compound 17]	> 8 mg/L

Test system: Staphylococcus saprophyticus subsp. saprophyticus
Assay: MIC, 20-strain panel
Assay type: cell-based
Settings: not given
Summary of the method: as §1

Structure (SMILES)	MIC
Cn1ccc(-c2ccc(CN3CC[C@@H](NS(=O)(=O)c4cccc(C(F)(F)F)c4)C3)cc2)n1 [Compound 171]	> 8 mg/L
Cc1ccncc1S(=O)(=O)N[C@@H]1CCN(Cc2ccc(-c3ccccc3)cc2)C1 [Compound 137]	> 8 mg/L
O=S(=O)(N[C@@H]1CCN(Cc2ccc(-c3ccccc3)cc2)C1)c1cncc(F)c1 [Compound 147]	> 8 mg/L
CC(C)Oc1c(Cl)cc(CN2CC[C@@H](NS(=O)(=O)c3cccc(OC(F)(F)F)c3)C2)cc1Cl [Compound 117]	> 8 mg/L
N#Cc1cccc(S(=O)(=O)N[C@@H]2CCN(Cc3ccc(OC(F)(F)F)cc3)C2)c1 [Compound 17]	> 8 mg/L

Test system: Streptococcus agalactiae
Assay: MIC, 20-strain panel
Assay type: cell-based
Settings: not given
Summary of the method: as §1

Structure (SMILES)	MIC
Cn1ccc(-c2ccc(CN3CC[C@@H](NS(=O)(=O)c4cccc(C(F)(F)F)c4)C3)cc2)n1 [Compound 171]	> 8 mg/L
Cc1ccncc1S(=O)(=O)N[C@@H]1CCN(Cc2ccc(-c3ccccc3)cc2)C1 [Compound 137]	> 8 mg/L
O=S(=O)(N[C@@H]1CCN(Cc2ccc(-c3ccccc3)cc2)C1)c1cncc(F)c1 [Compound 147]	> 8 mg/L
CC(C)Oc1c(Cl)cc(CN2CC[C@@H](NS(=O)(=O)c3cccc(OC(F)(F)F)c3)C2)cc1Cl [Compound 117]	> 8 mg/L
N#Cc1cccc(S(=O)(=O)N[C@@H]2CCN(Cc3ccc(OC(F)(F)F)cc3)C2)c1 [Compound 17]	> 8 mg/L

Test system: Streptococcus pyogenes
Assay: MIC, 20-strain panel
Assay type: cell-based
Settings: not given
Summary of the method: as §1

Structure (SMILES)	MIC
Cn1ccc(-c2ccc(CN3CC[C@@H](NS(=O)(=O)c4cccc(C(F)(F)F)c4)C3)cc2)n1 [Compound 171]	> 8 mg/L
Cc1ccncc1S(=O)(=O)N[C@@H]1CCN(Cc2ccc(-c3ccccc3)cc2)C1 [Compound 137]	> 8 mg/L
O=S(=O)(N[C@@H]1CCN(Cc2ccc(-c3ccccc3)cc2)C1)c1cncc(F)c1 [Compound 147]	> 8 mg/L
CC(C)Oc1c(Cl)cc(CN2CC[C@@H](NS(=O)(=O)c3cccc(OC(F)(F)F)c3)C2)cc1Cl [Compound 117]	> 8 mg/L
N#Cc1cccc(S(=O)(=O)N[C@@H]2CCN(Cc3ccc(OC(F)(F)F)cc3)C2)c1 [Compound 17]	> 8 mg/L
